In patent publication US20250170212A1, “COMPOSITIONS AND METHODS OF TREATING AMYOTROPHIC LATERAL SCLEROSIS (ALS) AND RELATED DISORDERS” (BIOINCEPT, LLC, priority 2022, published 2025):
“Also recorded” adds a separate entry of the source.

Tests used:
[1] = system: transgenic SOD1^G93A mice; test: Survival of ALS mice (Kaplan-Meier) after mGRPs transplantation with immunomodulatory drugs; format: in vivo, mouse; settings: n=6 per group, mGRPs into cisterna magna, drug groups all with mGRPs: sPIF 1 mg/kg day -1 to 14, Tac 1 mg/kg daily to day 56, CB 25 mg/kg days 0, 2, 4, 6
Excerpt: B6.Cg-Tg (SOD1^G93A) 1Gur/J (Animalab, The Jackson Laboratory, Bar Harbor, ME, USA, RRID: IMSR JAX:004435) and SCID (Animalab, Charles River Laboratory, Wilmington, MA, USA, RRID: IMSR_JAX:001303) mice were obtained from JaxMice. SOD1^G93A animals were divided randomly into 5 groups and SCID animals were used as control.
mGRP cells were received as a gift from the Department of Radiology and Radiological Science, Johns Hopkins School of Medicine (Baltimore, MD, USA). Cells were isolated as previously described from spinal cords dissected from Luc+/PLP/GFP+ mice between E12.5 and E14 stage. […] The viability of the mGRPs was assessed with trypan blue exclusion and only suspensions with over 70% of cell viability were used for transplantation. […]
All quantifications were performed including the manual cell counts in a blinded manner. The NeuN and Ibal were counted as positive cells in the ROI (see above) as previously reported. The number of cells was determined by unbiased counting of positive cells. […] Differences between groups were analyzed using a repeated measure ANOVA model with a fixed effect for the group, of the time and a random intercept for the mouse. In a second, more explorative, approach for each group the time when the physical activity was first measured below a certain threshold was determined. […]

[2] = system: GFP+ mGRPs, GFAP+ astrocytes, OLIG2+ oligodendrocytes
Protocol: Paraffin slides of the brain tissue after heated in 1 h in 60° C. were deparaffinized in: 1×10 min. Xylen I, 1×10 min Xylen II, 1×10 min EtOH 100%, 1×10 min EtOH 70%, 1×10 min EtOH 40%, 1×10 min dest. H2O. The target was retrieved in Citrate Buffer+Tween 20 (10 mM, pH=6.0) in a water bath for 20 minutes in 97° C. and then they were let cool down for another 20 minutes. Slides were washed in PBS three times and blocked 1 hour in 10% Goat serum+1% bovine albumin serum. All slides was incubated overnight at 4° C. with a first primary mouse Anti-GFP antibody 1:500 (Abcam Cat #ab1218, RRID: AB_298911). Washed three times with PBS, then secondary antibody Goat Anti-Mouse IgG H&L (Alexa Fluor® 488) in concentration 1:700 (Abcam Cat #ab 150117, RRID: AB_2688012) was applied for 40 min in RT. Then one part of the slides was washed three times in PBS and the second primary Rabbit Anti-GFAP antibody (Abcam Cat #ab7260, RRID: AB_305808) was applied 1:1000, incubated overnight at 4° C. After that the secondary antibody Goat Anti-Rabbit IgG H&L (Alexa Fluor® 594) (Abcam Cat #ab 150080, RRID: AB_2650602) was applied for 40 min RT in concentration 1:700. The second part of the slides was incubated with Rabbit Recombinant Anti-Olig2 antibody (Abcam Cat #ab109186, RRID: AB_10861310) 1:100 incubated overnight in 4° C. Next day the secondary antibody Goat Anti-Rabbit IgG H&L (Alexa Fluor® 594) (Abcam Cat #ab150080, RRID: AB_2650602) was applied for 40 min RT in 1:700 concentration. […] The slides were washed in PBS, mounted with DAKO mounting medium (Agilent Technologies, Santa Clara, CA, United States) and analyzed under Leica DM5500 fluorescent microscopy with LAS X software.

immature brain injury = settings: murine model of immature brain injury; cited from earlier work
[3] = whole cross section of the mouse diencephalon

## MVRIKPGSANKPSDD [sPIF]
[1]
  mice survival (Kaplan-Meier): seemed to be superior compared to other immune modulatory drugs; also recorded: seems superior but did not reach statistical significance
[2]; diencephalon, day 56
  mGRPs progeny: GFP+ astrocytes and oligodendrocytes in brain parenchyma: few GFP+ astrocytes and oligodendrocytes in the brain parenchyma
[2]; [3]
  area of astrocytes (GFAP+): significantly larger area of astrocytes
  area of oligodendrocytes (OLIG2+): larger area of oligodendrocytes
Immature brain injury
  neuronal loss and microglial activation: mitigate neuronal loss and microglial activation
